In patent publication US6864051B1, “Plant gene constructs and their use” (priority 1997, dated 2005):

How the values were obtained:
[1] = system: tobacco plants overexpressing ATH1; experiment: Foliar application (spraying) of GA3 to tobacco plants overexpressing ATH1; assay type: in vivo, Nicotiana tabacum; settings: 35S::ATH1 tobacco; for late-flowering phenotype of ATH1 overexpressing tobacco after GA spraying: foliar GA3 spraying, data not shown
Experimental: Tobacco plants (Nicotiana tabacum L. cv. Samsun NN) were transformed using the leaf disk procedure (Horsch et al., 1985). Transgenic plants were selected on MS-medium (Murashige and Skoog, 1962) containing […] kanamycin and 2% sucrose. After transfer to soil plants were grown in a greenhouse at 22° C. under a light regime of 16 hours daylight when necessary supplemented with artificial light. The effects of gibberellin (GA) were tested by foliar applications (spraying) of 100 mM GA3 in a solution containing 100 ml/l of Triton X-100. Control plants were sprayed with a solution containing only 100 ml/l of Triton X-100. Spraying began 60 days after sowing when the wild-type plants were approximately 5 cm tall and the 35S CaMV::ATH1 plants approximately 2.5 cm tall, and continued at 3- to 4-day intervals. Plant height was measured every 3 to 4 days and this will be continued until the onset of flowering, as determined by the appearance of flower primordia.

[2] = system: 35S::ATH1 Arabidopsis; experiment: Rescue of 35S::ATH1 Arabidopsis seeds/seedlings on growth medium containing GA3; assay type: in vivo, Arabidopsis thaliana; settings: growth medium containing 10^-5 M GA3 for three days
From the text: In order to gain more insight into the role of ATH1 in plant development, the full length ATH1 cDNA was fused to the constitutive 35S promoter of cauliflower mosaic virus and the 35S::ATH1 chimeric gene was transformed into Arabidopsis via the vacuum infiltration method. Six independent primary transformants could be obtained and all transgenic lines were selfed. From each independent transgenic line 40 individual seeds were germinated and scored for altered phenotypes compared to wild type plants. […] Once rescued and transferred to soil plants developed normally, except for a late flowering phenotype. Under short day conditions transgenic plants form much more rosette leaves (vegetative leaves) than wild type plants (about 40 rosette leaves and 100 days after germination, and plants are still not flowering, compared to about 30 rosette leaves in wild-type plants until flowering). Under LD conditions in most of these plants a partial generative to vegetative reversion occurs, shown by the formation of aerial rosettes (vegetative leaves) on the inflorescence stem. Plants (C24 ecotype) containing an extra copy of the ATH1 cDNA under control of the Hsp18.2 heat shock promoter (HspHlB plants) also show a late-flowering phenotype. […]

SMILES: C=C1C[C@]23C[C@@]1(O)CC[C@H]2[C@@]12C=C[C@H](O)[C@@](C)(C(=O)O1)[C@H]2[C@@H]3C(=O)O [GA3, gibberellin A3]
- late-flowering phenotype of ATH1 overexpressing tobacco after GA spraying [1]: holds also true
- late-flowering phenotype of ATH1 overexpressing tobacco after GA spraying ([1]; listed as GA): rescue
- stem length (plant height) of ATH1 overexpressing tobacco after GA3 ([1]; spraying of 100 mM GA3 at three to four day intervals): complete restoration of the wild-type stem length
- poor germination and arrest in seedling stage of 35S::ATH1 Arabidopsis [2]: could be overcome
